Source: patent publication US20260116921A1, “PEPTIDE INHIBITORS OF INTERLEUKIN-23 RECEPTOR AND THEIR USE TO TREAT INFLAMMATORY DISEASES” (priority 2018, published 2026)
Read-outs that look alike come from different tables or passages of the source. Numbered stars: 1 amine (or outer) side, 2 acyl side, 3 side chain; on linkers, the order of the positions; unused ones are H or OH. Bridge positions count the residues as written; N and C are the ends. Square brackets hold non-standard residues; d marks the D form. Peptide text beside a SMILES is read from it. X3 = CCc1ccc2c(C[C@H](N[*:1])C(=O)[*:2])c[nH]c2c1; Trp(7-Me) = Cc1cccc2c(C[C@H](N)C(=O)O)c[nH]c12; Trp(2-Me) = Cc1[nH]c2ccccc2c1C[C@H](N)C(=O)O; Abu(4-yl) = O=C([C@H](CC[*:3])N[*:1])[*:2]; 2Nal = N[C@@H](Cc1ccc2ccccc2c1)C(=O)O; d2Nal = N[C@H](Cc1ccc2ccccc2c1)C(=O)O; AEF = NCCOc1ccc(C[C@H](N)C(=O)O)cc1; αMeF = C[C@](N)(Cc1ccccc1)C(=O)O; Cit = NC(=O)NCCC[C@H](N)C(=O)O; Pen = CC(C)(S)[C@H](N)C(=O)O; αMeK = C[C@](N)(CCCCN)C(=O)O; Aib = CC(C)(N)C(=O)O; Sar = CNCC(=O)O

Target: T1, IL-23R (Homo sapiens, UniProt Q5VWK5)
T1 sequence (Q5VWK5 24-629): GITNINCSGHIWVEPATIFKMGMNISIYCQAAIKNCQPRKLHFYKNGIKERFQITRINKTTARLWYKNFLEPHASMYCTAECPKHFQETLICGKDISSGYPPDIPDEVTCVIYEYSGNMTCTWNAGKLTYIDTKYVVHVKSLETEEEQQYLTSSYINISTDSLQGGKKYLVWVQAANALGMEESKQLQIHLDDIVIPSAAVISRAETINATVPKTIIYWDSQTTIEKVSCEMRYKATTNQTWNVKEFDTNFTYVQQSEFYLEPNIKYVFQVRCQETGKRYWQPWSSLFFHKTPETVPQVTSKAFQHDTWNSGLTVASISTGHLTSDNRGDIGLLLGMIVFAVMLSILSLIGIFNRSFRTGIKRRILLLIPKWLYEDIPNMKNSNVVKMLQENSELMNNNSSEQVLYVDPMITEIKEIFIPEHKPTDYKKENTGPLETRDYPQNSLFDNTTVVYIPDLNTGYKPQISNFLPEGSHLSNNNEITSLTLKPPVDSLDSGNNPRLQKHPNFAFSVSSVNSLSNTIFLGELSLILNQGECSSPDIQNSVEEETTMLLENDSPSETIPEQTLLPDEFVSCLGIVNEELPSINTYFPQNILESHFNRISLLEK
Experiment: DB cells IL23R pSTAT3 cell assay (pStat3 HTRF)
Format: cell-based
Description: Human ELISA indicates the IL23-IL23R competitive binding assay described below, Rat ELISA indicates the rat IL-23R competitive binding ELISA assay described below, and pStat3HTRF indicates the DB cells IL-23R pSTAT3 cell assay described below. The peptides depicted in Table E1 are cyclized via a disulfide bridge formed between two Pen residues in these peptides. The peptides depicted in Table E2 are cyclized via a thioether bond between the indicated amino acid residues. Table E2 provides an illustrative structure depicting thioether cyclization, which is indicated in the table by the term “cyclo,” with the cyclic region bracketed immediately following the term “cyclo.” For certain peptides, the residue Abu is present where indicated, whereas in other embodiments, e.g., those related to the non-cyclized form, the Abu may be referred to as a hSer(Cl) or homoSer residue.
DB Cells IL23R pSTAT3 Cell Assay
IL-23 plays a central role in supporting and maintaining Th17 differentiation in vivo. This process is thought to be mediated primarily through the Signal Transducer and Activator of Transcription 3 (STAT3), with phosphorylation of STAT3 (to yield pSTAT3) leading to upregulation of RORC and pro-inflammatory IL-17. This cell assay examines the levels of pSTAT3 in IL-23R-expressing DB cells when stimulated with IL-23 in the presence of test compounds. Serial dilutions of test peptides and IL-23 (Humanzyme #HZ-1261) at a final concentration of 0.5 nM, were added to each well in a 96 well tissue culture plate (Corning #CLS3894). DB cells (ATCC #CRL-2289), cultured in RPMI-1640 medium (Thermo Scientific #11875093) supplemented with 10% FBS, were added at 5×10E5 cells/well and incubated for 30 minutes at 37° C. in a 5% CO2 humidified incubator. Changes in phospho-STAT3 levels in the cell lysates were detected using the Cisbio HTRF pSTAT3 (Tyr705) Cellular Assay Kit (Cisbio #62AT3PEH), according to manufacturer's Two Plate Assay protocol.

[1] = Table E3, DB cells, IL-23 0.5 nM, 30 minutes at 37° C., read-out: pStat3 HTRF (IC50)

Compound | IC50 [nM] | IC50 [1] [nM]
CC(=O)NCCCC[C@H](NC(=O)[C@](C)(CC(C)C)NC(=O)[C@H](Cc1ccc2ccccc2c1)NC(=O)[C@H](Cc1ccc(OCCN)cc1)NC(=O)[C@H]1NC(=O)[C@H](CCC(N)=O)NC(=O)[C@H](Cc2c[nH]c3ccc(Br)cc23)NC(=O)[C@H]([C@@H](C)O)NC(=O)[C@H](CC(N)=O)NC(=O)[C@@H](NC(C)=O)C(C)(C)SSC1(C)C)C(=O)N[C@@H](CC(N)=O)C(=O)N[C@@H](CC(N)=O)C(N)=O [compound 11] | > 100 | –
CC(=O)NCCCC[C@H](NC(=O)[C@](C)(CC(C)C)NC(=O)[C@H](Cc1ccc2ccccc2c1)NC(=O)[C@H](Cc1ccc(OCCN)cc1)NC(=O)[C@H]1NC(=O)[C@H](CCC(N)=O)NC(=O)[C@H](Cc2c[nH]c3ccc(Cl)cc23)NC(=O)[C@H]([C@@H](C)O)NC(=O)[C@H](CC(N)=O)NC(=O)[C@@H](NC(C)=O)C(C)(C)SSC1(C)C)C(=O)N[C@@H](CC(N)=O)C(=O)N[C@@H](CC(N)=O)C(N)=O [compound 1] | 10 to 100 | –
CC(=O)NCCCC[C@H](NC(=O)[C@](C)(CC(C)C)NC(=O)[C@H](Cc1c[nH]c2ccc(Br)cc12)NC(=O)[C@H](Cc1ccc(OCCN)cc1)NC(=O)[C@H]1NC(=O)[C@H](CCC(N)=O)NC(=O)[C@H](Cc2c[nH]c3ccccc23)NC(=O)[C@H]([C@@H](C)O)NC(=O)[C@H](CC(N)=O)NC(=O)[C@@H](NC(C)=O)C(C)(C)SSC1(C)C)C(=O)N[C@@H](CC(N)=O)C(=O)N[C@@H](CC(N)=O)C(N)=O [compound 22] | 1 to 10 | –
CC(=O)NCCCC[C@H](NC(=O)C1(NC(=O)[C@H](Cc2ccc3ccccc3c2)NC(=O)[C@H](Cc2ccc(OCCN)cc2)NC(=O)[C@@H]2CSCC[C@H](NC(C)=O)C(=O)N[C@@H](CCC(N)=O)C(=O)N[C@@H]([C@@H](C)O)C(=O)N[C@@H](Cc3c[nH]c4c(C)cccc34)C(=O)N[C@@H](CCC(N)=O)C(=O)N2)CCOCC1)C(=O)N[C@@H](CC(N)=O)C(=O)N[C@@H](CC(N)=O)C(N)=O [compound 30] | 1 to 10 | –
CC(=O)NCCCC[C@H](NC(=O)[C@](C)(CC(C)C)NC(=O)[C@H](Cc1c[nH]c2ccc(Cl)cc12)NC(=O)[C@H](Cc1ccc(OCCN)cc1)NC(=O)[C@H]1NC(=O)[C@H](CCC(N)=O)NC(=O)[C@H](Cc2c[nH]c3ccccc23)NC(=O)[C@H]([C@@H](C)O)NC(=O)[C@H](CC(N)=O)NC(=O)[C@@H](NC(C)=O)C(C)(C)SSC1(C)C)C(=O)N[C@@H](CC(N)=O)C(=O)N[C@@H](CC(N)=O)C(N)=O [compound 12] | > 100 | –
CC(=O)NCCCC[C@@H]1NC(=O)[C@H](Cc2c[nH]c3c(C)cccc23)NC(=O)[C@H]([C@@H](C)O)NC(=O)[C@H](CC(N)=O)NC(=O)[C@@H](NC(C)=O)C(C)(C)SSC(C)(C)[C@@H](C(=O)N[C@@H](Cc2ccc(OCCN)cc2)C(=O)N[C@@H](Cc2c(C)[nH]c3ccccc23)C(=O)N[C@@](C)(CCCCN)C(=O)N[C@@H](CCCCNC(C)=O)C(=O)N[C@@H](CC(N)=O)C(=O)N[C@H](CCCCN)C(N)=O)NC1=O [compound 353] (Ac-[Pen]NT[Trp(7-Me)]K(Ac)[Pen][AEF][Trp(2-Me)][αMeK]K(Ac)N[dK]-NH2; disulfide 1-6) | – | < 1
CC(=O)NCCCC[C@H](NC(=O)[C@](C)(CCCCN)NC(=O)[C@H](Cc1ccc2ccccc2c1)NC(=O)[C@H](Cc1ccc(OCCN)cc1)NC(=O)[C@H]1NC(=O)[C@H](CCCNC(N)=O)NC(=O)[C@H](Cc2c[nH]c3c(C)cccc23)NC(=O)[C@H]([C@@H](C)O)NC(=O)[C@H](CC(N)=O)NC(=O)[C@@H](NC(C)=O)C(C)(C)SSC1(C)C)C(=O)N[C@@H](CC(N)=O)C(=O)NC(C)(C)C(=O)N[C@H](Cc1ccccc1)C(N)=O [compound 346] (Ac-[Pen]NT[Trp(7-Me)][Cit][Pen][AEF][2Nal][αMeK]K(Ac)N[Aib][dF]-NH2; disulfide 1-6) | – | < 1
CC(=O)NCCCC[C@H](NC(=O)[C@](C)(CCCCN)NC(=O)[C@H](Cc1ccc2ccccc2c1)NC(=O)[C@H](Cc1ccc(OCCN)cc1)NC(=O)[C@H]1NC(=O)[C@H](CCCNC(N)=O)NC(=O)[C@H](Cc2c[nH]c3c(C)cccc23)NC(=O)[C@H]([C@@H](C)O)NC(=O)[C@H](CC(N)=O)NC(=O)[C@@H](NC(C)=O)C(C)(C)SSC1(C)C)C(=O)N[C@@H](CC(N)=O)C(=O)NC(C)(C)C(=O)N[C@H](Cc1ccc2ccccc2c1)C(N)=O [compound 348] (Ac-[Pen]NT[Trp(7-Me)][Cit][Pen][AEF][2Nal][αMeK]K(Ac)N[Aib][d2Nal]-NH2; disulfide 1-6) | – | 1 to 10
CCc1ccc2c(C[C@@H]3NC(=O)[C@H]([C@@H](C)O)NC(=O)[C@H](CC(N)=O)NC(=O)[C@@H](NC(C)=O)C(C)(C)SSC(C)(C)[C@@H](C(=O)N[C@@H](Cc4ccc(OCCN)cc4)C(=O)N[C@@H](Cc4ccc5ccccc5c4)C(=O)N[C@@](C)(CCCCN)C(=O)N[C@@H](CCCCNC(C)=O)C(=O)N[C@@H](CC(N)=O)C(=O)N[C@H](CCCCN)C(N)=O)NC(=O)[C@H](CCCCNC(C)=O)NC3=O)c[nH]c2c1 [compound 349] (Ac-[Pen]NT[X3]K(Ac)[Pen][AEF][2Nal][αMeK]K(Ac)N[dK]-NH2; disulfide 1-6) | 1 to 10 | –
CCCCCCCC(=O)NCCCC[C@@H]1NC(=O)[C@H](Cc2c[nH]c3c(C)cccc23)NC(=O)[C@H]([C@@H](C)O)NC(=O)[C@H](CC(N)=O)NC(=O)[C@@H](NC(C)=O)C(C)(C)SSC(C)(C)[C@@H](C(=O)N[C@@H](Cc2ccc(OCCN)cc2)C(=O)N[C@@H](Cc2ccc3ccccc3c2)C(=O)N[C@@](C)(CCCCN)C(=O)N[C@@H](CCCCNC(C)=O)C(=O)N[C@@H](CC(N)=O)C(=O)N[C@H](CC(C)C)C(N)=O)NC1=O [compound 317] | 1 to 10 | –
CC(=O)NCCCC[C@H](NC(=O)[C@](C)(CCCCN)NC(=O)[C@H](Cc1ccc2ccccc2c1)NC(=O)[C@H](Cc1ccc(OCCN)cc1)NC(=O)[C@H]1NC(=O)[C@H](CCCNC(N)=O)NC(=O)[C@H](Cc2c[nH]c3c(C)cccc23)NC(=O)[C@H]([C@@H](C)O)NC(=O)[C@H](CC(N)=O)NC(=O)[C@@H](NC(C)=O)C(C)(C)SSC1(C)C)C(=O)N[C@@H](CC(N)=O)C(=O)NC(C)(C)C(=O)N[C@H](Cc1ccc(O)cc1)C(N)=O [compound 347] (Ac-[Pen]NT[Trp(7-Me)][Cit][Pen][AEF][2Nal][αMeK]K(Ac)N[Aib][dY]-NH2; disulfide 1-6) | – | < 1
CC(=O)NCCCC[C@H](NC(=O)[C@](C)(CCCCN)NC(=O)[C@H](Cc1ccc2ccccc2c1)NC(=O)[C@H](Cc1ccc(OCCN)cc1)NC(=O)[C@H]1NC(=O)[C@H](CCCCNC(=O)CC(F)(F)F)NC(=O)[C@H](Cc2c[nH]c3c(C)cccc23)NC(=O)[C@H]([C@@H](C)O)NC(=O)[C@H](CC(N)=O)NC(=O)[C@@H](NC(C)=O)C(C)(C)SSC1(C)C)C(=O)N[C@@H](CC(N)=O)C(=O)N[C@H](CC(C)C)C(N)=O [compound 319] | – | < 1
CC(=O)NCCCC[C@H](NC(=O)[C@](C)(CCCCN)NC(=O)[C@H](Cc1ccc2ccccc2c1)NC(=O)[C@H](Cc1ccc(OCCN)cc1)NC(=O)[C@H]1NC(=O)[C@H](CCCNC(N)=O)NC(=O)[C@H](Cc2c[nH]c3c(C)cccc23)NC(=O)[C@H]([C@@H](C)O)NC(=O)[C@H](CC(N)=O)NC(=O)[C@@H](NC(C)=O)C(C)(C)SSC1(C)C)C(=O)N[C@@H](CC(N)=O)C(=O)N(C)CC(N)=O [compound 339] (Ac-[Pen]NT[Trp(7-Me)][Cit][Pen][AEF][2Nal][αMeK]K(Ac)N[Sar]-NH2; disulfide 1-6) | – | 1 to 10
CC(=O)NCCCC[C@@H]1NC(=O)[C@H](Cc2c[nH]c3c(C)cccc23)NC(=O)[C@H]([C@@H](C)O)NC(=O)[C@H](CCC(N)=O)NC(=O)[C@@H](NC(=O)[C@@H](CCCNC(=N)N)NC(C)=O)CCSC[C@@H](C(=O)N[C@@H](Cc2ccc(OCCN)cc2)C(=O)N[C@@H](Cc2ccc3ccccc3c2)C(=O)N[C@@](C)(CCCCN)C(=O)N[C@@H](CCCCNC(C)=O)C(=O)N[C@@H](CC(N)=O)C(=O)N[C@@](C)(Cc2ccccc2)C(N)=O)NC1=O [compound 327] (Ac-[dR][Abu(4-yl)]QT[Trp(7-Me)]K(Ac)C[AEF][2Nal][αMeK]K(Ac)N[αMeF]-NH2; thioether 2-7) | – | 10 to 100
